Assay results taken from patent US11919933B2, “Use of MYOG gene as target in preparation of drug for treating cardiomyocyte apoptosis-associated cardiovascular disease” (GUANGDONG BEATING ORIGIN REGENERATIVE MEDICINE CO., LTD., priority 2020, dated 2024).
Structures can show the parent of a compound that is named as a salt.

Columns and labels:
Type in all cases: cell-based, human
hiPSC-CMs [1] = assay: PrestoBlue cell viability assay of angiotensin II-treated hiPSC-CMs; details: angiotensin II 100 μM and 1 mM, long-term treatment (6 d and 10 d)
Procedure: (§1) 2.1 Induction of hiPSC-CM apoptosis with angiotensin II: Purified hiPSC-CMs were cultivated in a cardiomyocyte medium (MedChemExpress, HY-13948) with angiotensin II at different concentrations (1 nM, 10 nM, 100 nM, 1 μM, 10 μM, 100 μM, and 1 mM), and the angiotensin II-containing medium was changed every 2 days.
2.2.1 A cardiomyocyte viability was detected with the PrestoBlue cell viability assay reagent (Invitrogen, A13261) at 24 h, 48 h, 6 d, and 10 d, and results are shown in FIG. 3.

hiPSC-CMs [2] = assay: Annexin V apoptosis assay (flow cytometry) of angiotensin II-treated hiPSC-CMs; details: angiotensin II 100 μM and 1 mM, 10 d
Procedure: as §1
2.2.2 The apoptosis of cardiomyocytes treated with angiotensin II (100 μM and 1 mM) and untreated with angiotensin II on day 10 was detected with the apoptosis assay kit Annexin V, Alexa Fluor™488 conjugate (Invitrogen, V13201). Cardiomyocytes were labeled with the apoptosis marker Annexin V and then assayed with a FACSAria™ II flow cytometer (BD).

hiPSC-CMs [3] = assay: TUNEL apoptosis test of angiotensin II-treated hiPSC-CMs; details: angiotensin II 100 μM and 1 mM, 10 d
Procedure: as §1
2.2.3 TUNEL test: The TdT in situ apoptosis detection kit (R&D Systems, 4812-30-K) was used to detect the apoptosis of cardiomyocytes treated with angiotensin II (1 nM, 1 μM, 100 μM, and 1 mM) and untreated with angiotensin II on day 10. Cardiomyocytes were digested, then added on a glass slide, and stained according to the kit instructions, and nuclei were labeled with DAPI.

hiPSC-MYOG-CMs = assay: TUNEL apoptosis test of hiPSC-MYOG-CMs (Ang II / Dox groups); details: angiotensin II 1 mM, 6 d
Procedure: 5.1 Induction of hiPSC-MYOG-CM apoptosis with angiotensin II: Purified hiPSC-MYOG-CMs were divided into 4 groups (Ang II(+)&Dox(+), Ang II(+)&Dox(−), Ang II(−)&Dox(+), and Ang II(−)&Dox(−)) and then treated for 6 d with a Dox having a concentration of 2 μg/mL and an angiotensin II having a concentration of 1 mM.
5.3 Apoptosis assay: TUNEL test: The TdT in situ apoptosis detection kit (R&D Systems, 4812-30-K) was used to detect the apoptosis of cardiomyocytes in the 4 groups (Ang II(+)&Dox(+), Ang II(+)&Dox(−), Ang II(−)&Dox(+), and Ang II(−)&Dox(−)). Cardiomyocytes were digested, then added on a glass slide, and stained according to the kit instructions. Nuclei were labeled with DAPI.

[4] = test system: MYOG expression in hiPSC-MYOG cells; assay: qPCR detection of MYOG mRNA expression levels after Dox induction; details: Dox 2 μg/mL
Procedure: 2.1 Induction: The expression of MYOG was induced by adding Dox (Sigma, D9891) at a final concentration of 2 μg/mL to STEMUP, and DMSO was used as a control. In the control group, only DMSO (denoted as C1) was added to STEMUP. In the experimental group, both DOX and DMSO were added to STEMUP, where DOX was first added to DMSO, and then a resulting mixture (denoted as C2) was added to STEMUP. A final concentration of DOX in STEMUP was 2 μg/mL, and the C1 and C2 were added at a same amount. 2.2 Total RNA extraction: The UN1Q-10 column Trizol total RNA extraction kit (Sangon Biotech, B511321-0100) was used to extract total RNA of the cells (a sample was treated with deoxyribonuclease I (DNase I, Sangon Biotech, B618252) for 30 min in advance). 2.3 Reverse transcription: RNA was reverse-transcribed with the reverse transcription kit iScript Reverse Transcription Supermix (Bio-Rad, 1708841). 2.4 qPCR detection of MYOG mRNA expression levels: According to the instructions of SsoAdvanced™ Universal SYBR® Green Supermix (Bio-Rad, 1725271), the PikoReal Real-Time PCR system (Thermo Fisher) was used to design primers with […] as an internal reference, and then MYOG expression levels in hiPSC and hiPSC-MYOG (Dox-induced group and DMSO control group) were detected. Sequences of the primers were as follows: […]

Compound	cell viability (hiPSC-CMs [1])	proportion of apoptotic cells (Annexin V) (hiPSC-CMs [2])	proportion of apoptotic cells (TUNEL) (hiPSC-CMs [3])	apoptotic cell proportion relative to the control group (hiPSC-MYOG-CMs) [times]	expression level of MYOG in the Dox-induced group versus the DMSO control group [4]
angiotensin II (DRVYIHPF; Angiotensin-2; UniProt P01019 25-32, looked up) [common inducer for establishing cardiomyocyte apoptosis models]	decreased significantly	increased significantly	increased significantly	2.01	
C[C@H]1c2cccc(O)c2C(=O)C2=C(O)[C@]3(O)C(=O)C(C(N)=O)=C(O)[C@@H](N(C)C)[C@@H]3[C@@H](O)[C@@H]21 [Dox, doxycycline hydrochloride]					more than 100 times
